Laboratory results taken from the NIST ThermoML archive (doi:10.1021/je0496645).
± gives the expanded uncertainty stated by the source.

Settings: 101.33 kPa, Liquid; for viscosity: Capillary tube (Ostwald / Ubbelohde) method; for mass density: Vibrating tube method

CCCCC(CC)COP(=O)(O)OCC(CC)CCCC (stereo not given) [bis(2-ethylhexyl) hydrogen phosphate]
viscosity (303.15 K): 21.22 ± 0.56 mPa·s
mass density (303.15 K): 964 ± 1.9 kg/m3
viscosity (313.15 K): 13.32 ± 0.41 mPa·s
mass density (313.15 K): 957 ± 1.9 kg/m3
viscosity (323.15 K): 8.559 ± 0.25 mPa·s
mass density (323.15 K): 949.5 ± 1.9 kg/m3
viscosity (333.15 K): 5.83 ± 0.16 mPa·s
mass density (333.15 K): 942 ± 1.9 kg/m3
viscosity (343.15 K): 4.089 ± 0.12 mPa·s
mass density (343.15 K): 934.5 ± 1.9 kg/m3
